Experiment [1] deals with Factor XIa (Homo sapiens, UniProt P03951). Put plainly: Factor XIa inhibition assay (FLINT) utilizing a fluorophore-quencher pair peptide substrate 5Fam-[…]-K5Tamra. Type of experiment: biochemical. To be noted: kinetic (KIN) reads, read-out: FXIa KIN Inh IC50. In outline:
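FXIa was preincubated with compound for 30 min at room temperature in Tris pH 7.5 buffer containing CaCl2, BSA and CHAPS, then reacted with 15 μM quenched 5Fam/Tamra peptide substrate. Fluorescence (485/520 nm) was read kinetically every 5 min for 30 min.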

For experiment [2], the target named is human plasma kallikrein (Homo sapiens, UniProt P03952). As to the kind of experiment: Kallikrein inhibition assay (FLINT) utilizing a quenched AMC peptide substrate Z-Gly-Pro-Arg-AMC. Type of experiment: biochemical. To be noted: kinetic (KIN) reads, read-out: Kallikrein KIN Inh IC50. In outline:
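Human plasma kallikrein (2 nM final) pre-incubated 30 min with compound (11-point 3-fold series, top 1 μM, 2% DMSO), then 50 μM Z-Gly-Pro-Arg-AMC added. Buffer 50 mM Tris pH 7.5, 100 mM NaCl, 5 mM CaCl2, BSA, CHAPS. AMC fluorescence (340/440 nm) read kinetically over 30 min at room temperature, IC50 by 4-parameter logistic fit.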

Read-outs that look alike come from different tables or passages of the source.

Chain of human plasma kallikrein (P03952 391-638 limits assumed): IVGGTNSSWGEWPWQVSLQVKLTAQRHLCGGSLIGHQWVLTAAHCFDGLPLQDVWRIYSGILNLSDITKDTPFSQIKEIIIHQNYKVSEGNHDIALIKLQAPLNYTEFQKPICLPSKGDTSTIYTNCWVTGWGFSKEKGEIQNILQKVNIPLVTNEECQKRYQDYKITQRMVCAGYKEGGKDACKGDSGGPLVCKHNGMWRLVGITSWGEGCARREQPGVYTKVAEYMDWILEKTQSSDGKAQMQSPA
Chain of human plasma kallikrein (P03952 20-390 partner limits assumed): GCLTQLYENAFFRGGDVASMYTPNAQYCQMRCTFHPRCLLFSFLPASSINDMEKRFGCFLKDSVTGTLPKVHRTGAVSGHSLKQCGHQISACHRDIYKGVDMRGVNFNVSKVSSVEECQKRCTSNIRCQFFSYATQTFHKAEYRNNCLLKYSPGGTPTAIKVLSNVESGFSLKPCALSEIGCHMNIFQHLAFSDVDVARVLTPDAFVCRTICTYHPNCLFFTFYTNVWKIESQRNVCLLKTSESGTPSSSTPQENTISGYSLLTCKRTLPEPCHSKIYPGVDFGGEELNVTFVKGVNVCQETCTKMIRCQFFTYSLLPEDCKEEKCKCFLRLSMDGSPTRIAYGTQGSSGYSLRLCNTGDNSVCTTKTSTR
Chain of Factor XIa (P03951 388-625 limits assumed): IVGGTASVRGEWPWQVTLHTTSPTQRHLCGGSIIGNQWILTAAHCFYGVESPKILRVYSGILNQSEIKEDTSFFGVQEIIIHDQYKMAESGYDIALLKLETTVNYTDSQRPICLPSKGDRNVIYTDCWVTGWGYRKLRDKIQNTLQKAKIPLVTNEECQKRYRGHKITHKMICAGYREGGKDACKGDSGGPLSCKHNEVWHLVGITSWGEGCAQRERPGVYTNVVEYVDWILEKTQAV
Chain of Factor XIa (P03951 19-387 partner limits assumed): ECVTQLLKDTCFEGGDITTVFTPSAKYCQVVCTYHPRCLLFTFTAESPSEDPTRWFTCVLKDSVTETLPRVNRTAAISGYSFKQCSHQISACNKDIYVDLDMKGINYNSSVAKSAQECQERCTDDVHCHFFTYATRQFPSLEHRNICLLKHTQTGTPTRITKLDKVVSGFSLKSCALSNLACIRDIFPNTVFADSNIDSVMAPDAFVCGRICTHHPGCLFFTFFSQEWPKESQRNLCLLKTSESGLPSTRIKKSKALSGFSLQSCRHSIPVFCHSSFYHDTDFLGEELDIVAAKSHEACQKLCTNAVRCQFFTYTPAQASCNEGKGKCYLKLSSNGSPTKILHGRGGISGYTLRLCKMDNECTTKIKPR

Usually IC50 stands for the point on the concentration scale where inhibition reaches its midpoint. Turning to `CO[C@@H]1C[C@H](c2ncc(-c3ccc(N)nc3F)[nH]2)n2c1cc(-c1c(-n3cnnn3)ccc(Cl)c1F)cc2=O` (relative stereo) [Example 151, (1*R,3*R)-3-(5-(6-Amino-2-fluoropyridin-3-yl)-1H-imidazol-2-yl)-7-(3-chloro-2-fluoro-6-(1H-tetrazol-1-yl)phenyl)-1-methoxy-2,3-dihydroindolizin-5(1H)-one], the values for the IC50 in experiment [1] (values in nM) and in experiment [2] (values in nM) were 0.3 nM and 14 nM, respectively.

For the molecule `C[C@@H]1C[C@@H](c2ncc(-c3ccc(NC(=O)C4CC4)nc3)[nH]2)n2c1nc(-c1c(-n3cnnn3)ccc(Cl)c1F)cc2=O` (stereo in doubt) [Example 122, N-(5-(2-((6*S,8*R)-2-(3-Chloro-2-fluoro-6-(1H-tetrazol-1-yl)phenyl)-8-methyl-4-oxo-4,6,7,8-tetrahydropyrrolo[1,2-a]pyrimidin-6-yl)-1H-imidazol-5-yl)pyridin-2-yl)cyclopropanecarboxamide], the IC50 in experiment [1] (values in nM) was determined as 95 nM; in experiment [2] (unit μM), 5600 nM.

Regarding `COC(=O)Nc1ccc(-c2cnc([C@@H]3C[C@H](C)c4cc(-c5c(-n6cnnn6)ccc(Cl)c5F)cc(=O)n43)[nH]2)cc1` [Example 63, Methyl(4-(2-((1S,3S)-7-(3-chloro-2-fluoro-6-(1H-tetrazol-1-yl)phenyl)-1-methyl-5-oxo-1,2,3,5-tetrahydroindolizin-3-yl)-1H-imidazol-5-yl)phenyl)carbamate], the values for the IC50 in experiment [1] (values in nM) and in experiment [2] (values in nM) were 0.2 nM and 3.5 nM, respectively.

Turning to `CC(C)(O)COc1nccc(-c2cnc(C3CC4(CC4)c4nc(-c5c(-n6cnnn6)ccc(Cl)c5F)cc(=O)n43)[nH]2)c1F` (single isomer, unassigned) [Example 70, (R*)-2′-(3-Chloro-2-fluoro-6-(1H-tetrazol-1-yl)phenyl)-6′-(5-(3-fluoro-2-(2-hydroxy-2-methylpropoxy)pyridin-4-yl)-1H-imidazol-2-yl)-6′,7′-dihydro-4′H-spiro[cyclopropane-1,8′-pyrrolo[1,2-a]pyrimidin]-4′-one], the IC50 in experiment [1] (values in nM) was found to be 7.3 nM; in experiment [2] (values in nM), 42.9 nM.

Consider `C[C@H]1C[C@@H](c2ncc(-c3ccc(N)nc3F)[nH]2)n2c1nc(-c1c(-n3cnnn3)ccc(Cl)c1F)cc2=O` (stereo in doubt) [Example 150, (6S*,8S*)-6-(5-(6-Amino-2-fluoropyridin-3-yl)-1H-imidazol-2-yl)-2-(3-chloro-2-fluoro-6-(1H-tetrazol-1-yl)phenyl)-8-methyl-7,8-dihydropyrrolo[1,2-a]pyrimidin-4(6H)-one], for which the IC50 in experiment [1] (values in nM) stood at 0.9 nM; in experiment [2] (values in nM), 25.9 nM.

With `C[C@@H]1C[C@H](c2ncc(-c3ccn4nccc4c3)[nH]2)n2c1cc(-c1c(-n3cnnn3)ccc(Cl)c1F)cc2=O` (stereo in doubt) [Example 52, (1*R,3*R)-7-(3-Chloro-2-fluoro-6-(1H-tetrazol-1-yl)phenyl)-1-methyl-3-(5-(pyrazolo[1,5-a]pyridin-5-yl)-1H-imidazol-2-yl)-2,3-dihydroindolizin-5(1H)-one], the IC50 in experiment [1] (unit μM) is 7900 nM; in experiment [2] (unit μM), above 10000 nM.

Regarding `C[C@H]1C[C@@H](c2ncc(-c3ccnc(CO)c3F)[nH]2)n2c1cc(-c1c(-n3cnnn3)ccc(Cl)c1F)cc2=O` (relative stereo) [Example 2, (1 S*,3S*)-7-(3-Chloro-2-fluoro-6-(1H-tetrazol-1-yl)phenyl)-3-(5-(3-fluoro-2-(hydroxymethyl)pyridin-4-yl)-1H-imidazol-2-yl)-1-methyl-2,3-dihydroindolizin-5(1H)-one], the IC50 in experiment [1] (values in nM) was found to be 22 nM; in experiment [2] (values in nM), 170 nM.

Consider `[2H]C([2H])([2H])OC(=O)Nc1ccc(-c2cnc(C3CC4(CC4)c4nc(-c5c(-n6cnnn6)ccc(Cl)c5F)cc(=O)n43)[nH]2)cc1` (single isomer, unassigned) [Example 71, Methyl-d3 (R*)-(4-(2-(2′-(3-Chloro-2-fluoro-6-(1H-tetrazol-1-yl)phenyl)-4′-oxo-6′,7′-dihydro-4′H-spiro[cyclopropane-1,8′-pyrrolo[1,2-a]pyrimidin]-6′-yl)-1H-imidazol-5-yl)phenyl)carbamate], for which the results for the concentration for half-maximal inhibition (IC50) in experiment [1] (values in nM) and in experiment [2] (values in nM) were above 100 nM and 736 nM, respectively.

Consider `C[C@@H]1C[C@@H](c2ncc(-c3ccc(N)nc3Cl)[nH]2)n2c1cc(-c1c(-n3cnnn3)ccc(Cl)c1F)cc2=O` [Example 58, (1R,3S)-3-(5-(6-Amino-2-chloropyridin-3-yl)-1H-imidazol-2-yl)-7-(3-chloro-2-fluoro-6-(1H-tetrazol-1-yl)phenyl)-1-methyl-2,3-dihydroindolizin-5(1H)-one], for which the IC50 in experiment [1] (values in nM) came to 0.4 nM; in experiment [2] (values in nM) it was 3.1 nM.

With `C[C@H]1C[C@H](c2ncc(-c3ccnc(C#N)c3)[nH]2)n2c1cc(-c1c(-n3cnnn3)ccc(Cl)c1F)cc2=O` (relative stereo) [Example 30, 4-(2-((1S,3R)-7-(3-Chloro-2-fluoro-6-(1H-tetrazol-1-yl)phenyl)-1-methyl-5-oxo-1,2,3,5-tetrahydroindolizin-3-yl)-1H-imidazol-5-yl)picolinonitrile], the IC50 is 873 nM in experiment [1] (values in nM) and 1200 nM in experiment [2] (unit μM).

Take `C[C@H]1C[C@@H](c2[nH]c(-c3ccc(N)nc3F)nc2F)n2c1cc(-c1c(-n3cnnn3)ccc(Cl)c1F)cc2=O` [Example 34, (1S,3S)-3-(2-(6-Amino-2-fluoropyridin-3-yl)-4-fluoro-1H-imidazol-5-yl)-7-(3-chloro-2-fluoro-6-(1H-tetrazol-1-yl)phenyl)-1-methyl-2,3-dihydroindolizin-5(1H)-one]: the results for the IC50 in experiment [1] (values in nM) and in experiment [2] (values in nM) were 0.1 nM and 7.3 nM, respectively.

Regarding `C[C@H]1C[C@@H](c2ncc(-c3ccc4nn(C)cc4c3)[nH]2)n2c1cc(-c1c(-n3cnnn3)ccc(Cl)c1F)cc2=O` (stereo in doubt) [Example 46, (1*S,3*S)-7-(3-Chloro-2-fluoro-6-(1H-tetrazol-1-yl)phenyl)-1-methyl-3-(5-(2-methyl-2H-indazol-5-yl)-1H-imidazol-2-yl)-2,3-dihydroindolizin-5(1H)-one], the IC50 is 431 nM in experiment [1] (values in nM) and 488 nM in experiment [2] (values in nM).

In the case of `C[C@H]1C[C@@H](c2ncc(-c3ccc(N)nc3F)[nH]2)n2c1cc(-c1c(-n3cnnn3)ccc(Cl)c1F)cc2=O` (stereo in doubt) [Example 68, (1*S,3*S)-3-(5-(6-Amino-2-fluoropyridin-3-yl)-1H-imidazol-2-yl)-7-(3-chloro-2-fluoro-6-(1H-tetrazol-1-yl)phenyl)-1-methyl-2,3-dihydroindolizin-5(1H)-one], the IC50 in experiment [1] (unit μM) and in experiment [2] (unit μM) was above 10000 nM each time.

`C[C@@H]1C[C@@H](c2ncc(-c3ccnn3C)[nH]2)n2c1nc(-c1c(-n3cnnn3)ccc(Cl)c1F)cc2=O` (relative stereo) [Example 145, (6S*,8R*)-2-(3-Chloro-2-fluoro-6-(1H-tetrazol-1-yl)phenyl)-8-methyl-6-(5-(1-methyl-1H-pyrazol-5-yl)-1H-imidazol-2-yl)-7,8-dihydropyrrolo[1,2-a]pyrimidin-4(6H)-one]: the IC50 in experiment [1] (unit μM) and in experiment [2] (unit μM) was above 10000 nM each time.

As for `C[C@H]1C[C@@H](c2ncc(-c3cc4c(cn3)NC(=O)CC4)[nH]2)n2c1cc(-c1c(-n3cnnn3)ccc(Cl)c1F)cc2=O` (single isomer, unassigned) [Example 92, 6-(2-((1S*,3S*)-7-(3-Chloro-2-fluoro-6-(1H-tetrazol-1-yl)phenyl)-1-methyl-5-oxo-1,2,3,5-tetrahydroindolizin-3-yl)-1H-imidazol-5-yl)-3,4-dihydro-1,7-naphthyridin-2(1H)-one], the IC50 in experiment [1] (values in nM) is 8.3 nM; in experiment [2] (values in nM) it was 15.6 nM.

As to `C[C@H]1C[C@@H](c2ncc(-c3cn[nH]c3)[nH]2)n2c1nc(-c1c(-n3cnnn3)ccc(Cl)c1F)cc2=O` (stereo in doubt) [Example 107, (6*S,8*S)-6-(5-(1H-Pyrazol-4-yl)-1H-imidazol-2-yl)-2-(3-chloro-2-fluoro-6-(1H-tetrazol-1-yl)phenyl)-8-methyl-7,8-dihydropyrrolo[1,2-a]pyrimidin-4(6H)-one], the IC50 in experiment [1] (values in nM) came to 2.4 nM; in experiment [2] (values in nM) it was 95.9 nM.

As for `COc1cc(-c2cnc([C@@H]3C[C@@H](C)c4nc(-c5c(-n6cnnn6)ccc(Cl)c5F)cc(=O)n43)[nH]2)ccn1` (stereo in doubt) [Example 98, (6*S,8*R)-2-(3-Chloro-2-fluoro-6-(1H-tetrazol-1-yl)phenyl)-6-(5-(2-methoxypyridin-4-yl)-1H-imidazol-2-yl)-8-methyl-7,8-dihydropyrrolo[1,2-a]pyrimidin-4(6H)-one], the IC50 is 143 nM in experiment [1] (values in nM) and 135 nM in experiment [2] (values in nM).

For `C[C@H]1C[C@@H](c2ncc(-c3cnc(N)nc3)[nH]2)n2c1nc(-c1c(-n3cnnn3)ccc(Cl)c1F)cc2=O` (stereo in doubt) [Example 119, (6*S,8*S)-6-(5-(2-Aminopyrimidin-5-yl)-1H-imidazol-2-yl)-2-(3-chloro-2-fluoro-6-(1H-tetrazol-1-yl)phenyl)-8-methyl-7,8-dihydropyrrolo[1,2-a]pyrimidin-4(6H)-one], the IC50 in experiment [1] (values in nM) turned out to be 8.7 nM; in experiment [2] (values in nM), 287 nM.

With `CC(O)c1nccc(-c2cnc([C@@H]3CC4(CC4)c4cc(-c5c(-n6cnnn6)ccc(Cl)c5F)cc(=O)n43)[nH]2)c1F` (single isomer, unassigned) [Example 5, (3'S)-7′-(3-Chloro-2-fluoro-6-(1H-tetrazol-1-yl)phenyl)-3′-(5-(3-fluoro-2-(1-hydroxyethyl)pyridin-4-yl)-1H-imidazol-2-yl)-2′,3′-dihydro-5′H-spiro[cyclopropane-1,1′-indolizin]-5′-one], the IC50 is above 100 nM in experiment [1] (values in nM) and above 1000 nM in experiment [2] (unit μM).

These data come from patent US20230097157A1, “Bicyclic Pyridin-2-one and pyrimidin-4-one Derivatives Useful As a Factor XIa Inhibitors” (Janssen Pharmaceutica NV, priority 2021, published 2023).
